IC50 data for one compound are collected here from BindingDB's records for doi:10.1016/S0960-894X(00)80270-X (1991).

This test in a line: Compound was tested for inhibitory activity against fucosyltransferase.

What is called IC50 is the point on the concentration scale where inhibition reaches its midpoint.

`OC[C@@H]1NC[C@@H](O)[C@@H](O)[C@@H]1O[C@@H]1O[C@@H](CO)[C@H](O)[C@H](O)[C@@H]1O` showed an IC50 of 40 mM.
